Experimental data as given in EP3915971A1, “PHENYL-S(O)N-PHENYLAMIDINES AND THE USE THEREOF AS FUNGICIDES” (Bayer Aktiengesellschaft, priority 2020, dated 2021).

How the values were obtained:
[1] = test system: Phakospora pachyrhizi; assay: in vivo preventive test on Phakospora pachyrhizi (soybean rust); settings: Glycine max, 264 h; 500 ppm of active ingredient; preventive spray on young soybean plants, inoculation after 24 hours, evaluated 11 days after inoculation; 0% = control plants, 100% = no disease; read-out: efficacy
Experimental: Example A: in vivo preventive test on Phakospora pachyrhizi (soybean rust) [table] The active ingredients were made soluble and homogenized in a mixture of Dimethyl sulfoxide/Acetone/ /Tween® 80 and then diluted in water to the desired concentration. The young plants of soybean were treated by spraying the active ingredient prepared as described above. Control plants were treated only with an aqueous solution of Acetone/Dimethyl sulfoxide/ Tween® 80. After 24 hours, the plants were contaminated by spraying the leaves with an aqueous suspension of Phakospora pachyrhizi spores. The contaminated soybean plants were incubated for 24 hours at 24°C and at 100% relative humidity and then for 10 days at 24°C and at 70-80% relative humidity. The test was evaluated 11 days after the inoculation. 0% means an efficacy which corresponds to that of the control plants while an efficacy of 100% means that no disease was observed.

[2] = LogP measurement by HPLC on reversed phase columns (EEC directive 79/831 Annex V.A8); assay type: physicochemical; settings: reversed phase HPLC columns
Experimental: Measurement of LogP values was performed according to EEC directive 79/831 Annex V.A8 by HPLC (High Performance Liquid Chromatography) on reversed phase columns with the following methods: • ^[a] LogP value is determined by measurement of LC-UV, in an acidic range, with 0.1% formic acid in water and acetonitrile as eluent (linear gradient from 10% acetonitrile to 95% acetonitrile). • ^[b] LogP value is determined by measurement of LC-UV, in a neutral range, with 0.001 molar ammonium acetate solution in water and acetonitrile as eluent (linear gradient from 10% acetonitrile to 95% acetonitrile). • ^[c] LogP value is determined by measurement of LC-UV, in an acidic range, with 0.1% phosphoric acid and acetonitrile as eluent (linear gradient from 10% acetonitrile to 95% acetonitrile).
If more than one LogP value is available within the same method, all the values are given and separated by "+". […]

[3] = method [a]: LC-UV, acidic range, 0.1% formic acid in water and acetonitrile as eluent (linear gradient 10% to 95% acetonitrile)

CCN(C)C=Nc1cc(C)c(Sc2ccccc2Cl)cc1C [Example I-005, N'-[4-[(2-chlorophenyl)thio]-2,5-dimethylphenyl]-N-ethyl-N-methylmethanimidamide]
pest or weed control at 500 ppm [1]: ≥ 70%
chromatographic logP [2, 3]: 2.16

CCN(C)C=Nc1cc(C)c(Sc2ccccc2C)cc1Cl [Example I-006, N'-[2-chloro-5-methyl-4-[(2-methylphenyl)thio]phenyl]-N-ethyl-N-methylmethanimidamide]
pest or weed control at 500 ppm [1]: ≥ 70%
chromatographic logP [2, 3]: 1.77

CCN(C)C=Nc1cc(C)c(Sc2ccccc2Cl)cc1Cl [Example I-007, N'-[2-chloro-4-[(2-chlorophenyl)thio]-5-methylphenyl]-N-ethyl-N-methylmethanimidamide]
pest or weed control at 500 ppm [1]: ≥ 70%
chromatographic logP [2, 3]: 1.83

CCN(C)C=Nc1cc(C)c(Sc2ccccc2F)cc1Cl [Example I-008, N'-[2-chloro-4-[(2-fluorophenyl)thio]-5-methylphenyl]-N-ethyl-N-methylmethanimidamide]
pest or weed control at 500 ppm [1]: ≥ 70%
chromatographic logP [2, 3]: 1.6

CCN(C)C=Nc1cc(C)c(S(=O)(=O)c2ccccc2Cl)cc1C [Example I-020, N'-[4-(2-chlorophenyl)sulfonyl-2,5-dimethylphenyl]-N-ethyl-N-methylmethanimidamide]
pest or weed control at 500 ppm [1]: ≥ 70%
chromatographic logP [2, 3]: 1.18

CCN(C)C=Nc1cc(F)c(Sc2ccccc2)cc1C [Example I-021, N-ethyl-N'-(5-fluoro-2-methyl-4-phenylsulfanylphenyl)-N-methylmethanimidamide]
pest or weed control at 500 ppm [1]: ≥ 70%
chromatographic logP [2, 3]: 1.53

CCN(C)C=Nc1cc(C)c(S(=O)(=O)c2ccccc2C)cc1Br [Example I-065, N'-[2-bromo-5-methyl-4-(2-methylphenyl)sulfonylphenyl]-N-ethyl-N-methylmethanimidamide]
chromatographic logP [2, 3]: 1.93

CCN(C)C=Nc1cc(Br)c(S(=O)(=O)c2ccccc2C#N)cc1C [Example I-070, N'-[5-bromo-4-(2-cyanophenyl)sulfonyl-2-methylphenyl]-N-ethyl-N-methylmethanimidamide]
chromatographic logP [2, 3]: 1.34

CCN(C)C=Nc1cc(C)c(S(=O)(=O)c2ccccc2F)cc1Br [Example I-071, N'-[2-bromo-4-(2-fluorophenyl)sulfonyl-5-methylphenyl]-N-ethyl-N-methylmethanimidamide]
chromatographic logP [2, 3]: 1.81

CCN(C)C=Nc1cc(C)c(S(=O)(=O)c2ccccc2C)cc1C1CC1 [Example I-072, N'-[2-cyclopropyl-5-methyl-4-(2-methylphenyl)sulfonylphenyl]-N-ethyl-N-methylmethanimidamide]
chromatographic logP [2, 3]: 1.39

CCN(C)C=Nc1cc(C)c([S+]([O-])c2ccccc2C)cc1C(C)C (centres unmarked) [Example I-073, N-ethyl-N'-[2-isopropyl-5-methyl-4-(2-methylphenyl)sulfinylphenyl]-N-methylmethanimidamide]
chromatographic logP [2, 3]: 1.18

CCN(C)C=Nc1cc(C)c([S+]([O-])c2ccccc2C)cc1C1CC1 (centres unmarked) [Example I-074, N'-[2-cyclopropyl-5-methyl-4-(2-methylphenyl)sulfinylphenyl]-N-ethyl-N-methylmethanimidamide]
chromatographic logP [2, 3]: 1.07

CCN(C)C=Nc1cc(C)c([S+]([O-])c2ccccc2)cc1C1CC1 (centres unmarked) [Example I-075, N'-[4-(benzenesulfinyl)-2-cyclopropyl-5-methylphenyl]-N-ethyl-N-methylmethanimidamide]
chromatographic logP [2, 3]: 0.9

CCc1cc([S+]([O-])c2ccccc2F)c(C)cc1N=CN(C)CC (centres unmarked) [Example I-076, N-ethyl-N'-[2-ethyl-4-(2-fluorophenyl)sulfinyl-5-methylphenyl]-N-methylmethanimidamide]
chromatographic logP [2, 3]: 1

CCN(C)C=Nc1cc(C)c([S+]([O-])c2ccccc2)cc1Br (centres unmarked) [Example I-079, N'-[4-(benzenesulfinyl)-2-bromo-5-methylphenyl]-N-ethyl-N-methylmethanimidamide]
chromatographic logP [2, 3]: 0.93

CCN(C)C=Nc1cc(C)c(Sc2ccccc2)cc1Br [Example I-080, N'-(2-bromo-5-methyl-4-phenylsulfanylphenyl)-N-ethyl-N-methylmethanimidamide]
chromatographic logP [2, 3]: 1.75

CCc1cc([S+]([O-])c2ccccc2C)c(C)cc1N=CN(C)CC (centres unmarked) [Example I-081, N-ethyl-N'-[2-ethyl-5-methyl-4-(2-methylphenyl)sulfinylphenyl]-N-methylmethanimidamide]
chromatographic logP [2, 3]: 1.07

CCN(C)C=Nc1cc(C)c(Sc2ccccc2C)cc1C(F)(F)F [Example I-083, N-ethyl-N-methyl-N'-[5-methyl-4-[(2-methylphenyl)thio]-2-(trifluoromethyl)phenyl]methanimidamide]
chromatographic logP [2, 3]: 2.62

CCc1cc(S(=O)(=O)c2ccccc2F)c(C)cc1N=CN(C)CC [Example I-084, N-ethyl-N'-[2-ethyl-4-(2-fluorophenyl)sulfonyl-5-methylphenyl]-N-methylmethanimidamide]
chromatographic logP [2, 3]: 1.24

CCN(C)C=Nc1cc(C)c([S+]([O-])c2ccccc2F)cc1C(C)C (centres unmarked) [Example I-086, N-ethyl-N'-[4-(2-fluorophenyl)sulfinyl-2-isopropyl-5-methylphenyl]-N-methylmethanimidamide]
chromatographic logP [2, 3]: 1.15

CCN(C)C=Nc1cc(C)c([S+]([O-])c2ccccc2C)cc1C(F)(F)F (centres unmarked) [Example I-088, N-ethyl-N-methyl-N'-[5-methyl-4-(2-methylphenyl)sulfinyl-2-(trifluoromethyl)phenyl]methanimidamide]
chromatographic logP [2, 3]: 2.14

CCN(C)C=Nc1cc(C)c([S+]([O-])c2ccccc2F)cc1C1CC1 (centres unmarked) [Example I-089, N'-[2-cyclopropyl-4-(2-fluorophenyl)sulfinyl-5-methylphenyl]-N-ethyl-N-methylmethanimidamide]
chromatographic logP [2, 3]: 1.04

CCN(C)C=Nc1cc(C)c(S(=O)(=O)c2ccccc2C)cc1C(F)(F)F [Example I-092, N-ethyl-N-methyl-N'-[5-methyl-4-(2-methylphenyl)sulfonyl-2-(trifluoromethyl)phenyl]methanimidamide]
chromatographic logP [2, 3]: 3.76

CCN(C)C=Nc1cc(C)c(S(=O)(=O)c2ccccc2F)cc1C(C)C [Example I-093, N-ethyl-N'-[4-(2-fluorophenyl)sulfonyl-2-isopropyl-5-methylphenyl]-N-methylmethanimidamide]
chromatographic logP [2, 3]: 1.45

CCN(C)C=Nc1cc(C)c(S(=O)(=O)c2ccccc2C)cc1C(C)C [Example I-094, N-ethyl-N'-[2-isopropyl-5-methyl-4-(2-methylphenyl)sulfonylphenyl]-N-methylmethanimidamide]
chromatographic logP [2, 3]: 1.58

CCN(C)C=Nc1cc(C)c(S(=O)(=O)c2ccccc2)cc1C1CC1 [Example I-095, N'-[4-(benzenesulfonyl)-2-cyclopropyl-5-methylphenyl]-N-ethyl-N-methylmethanimidamide]
chromatographic logP [2, 3]: 1.24

CCN(C)C=Nc1cc(C)c(S(=O)(=O)c2ccccc2F)cc1C1CC1 [Example I-096, N'-[2-cyclopropyl-4-(2-fluorophenyl)sulfonyl-5-methylphenyl]-N-ethyl-N-methylmethanimidamide]
chromatographic logP [2, 3]: 1.27

CCN(C)C=Nc1cc(C)c(Sc2ccccc2C#N)cc1C(F)(F)F [Example I-104, N'-[4-[(2-cyanophenyl)thio]-5-methyl-2-(trifluoromethyl)phenyl]-N-ethyl-N-methylmethanimidamide]
chromatographic logP [2, 3]: 2.44
chromatographic logP ([2]; method [b]: LC-UV, neutral range, 0.001 molar ammonium acetate solution in water and acetonitrile as eluent (linear gradient 10% to 95% acetonitrile)): 4.64
